Measured values reported in paper PMC4304871 (Nature structural & molecular biology, 2014).

Tested on: 10E8 antibody
Experiment: Competitive 10E8 ELISA binding assay
Design: species or system human

ELXKWAXLWNWFNITNZLWXIK (bicyclic or more) [SAH-MPER(662–683)(C,q)]
10E8 Fab-binding activity (in words): no binding activity
